What was measured:
[1] = test system: SKBR3 (PIK3CA WT) cells, pSer473 AKT; experiment: pS473 AKT assay in SKBR3 cells; type: cell-based; conditions: Homo sapiens, SK-BR-3, treated 2 h, read-out: SKBR3_IC50
Experimental: (§1) SKBR3 (PIK3CA WT), MCF7 (PIK3CA E545K), and T47D (PIK3CA H1047R) cells were cultured using 10-cm petri dishes with recommended medium. One day before the assay, cells were seeded in 96-well plates. After overnight incubation, cells were treated with different concentrations of PI3Kα inhibitors for 2 h. Cells were then fixed using 4% paraformaldehyde at room temperature for 20 min. Cells were aspirated with 4% paraformaldehyde, and washed using 1× regular phosphate buffered saline 3 times, 5 min each. Any residual phosphate buffered saline was aspirated and cells were blocked using 10% goat serum containing 1% bovine serum albumin and 0.3% Triton X-100 at room temperature for 1 h. Without any additional washing, primary antibodies (rabbit anti-pSer473 AKT) were diluted using blocking buffer and added at a final volume of 50 microliter per well. Assay plates with primary antibodies were maintained overnight at 4° C. Cells were washed using 1× regular phosphate buffered saline 3 times, 5 min each. After the final wash, cells were incubated with horseradish peroxidase-conjugated secondary antibodies (goat Anti-rabbit IgG) and diluted using the same blocking buffer at room temperature for 1 h. Cells were then washed thoroughly using 1× regular phosphate buffered saline 3 times, 5 min each, and any residual phosphate buffered saline was aspirated. Super-Signal ELISA Pico Chemiluminescent Substrate was then added at a final volume of 100 microliter per well. Plates were read on a i3x Multi-Mode Microplate Reader and IC50 values calculated using GraphPad Prism software.
(§2) Results of the assay described above are presented in Table A. “++++” indicates an IC50 less than 1000 nM; “+++” indicates an IC50 greater than or equal to 1000 nM but less than 5000 nM; “++” indicates an IC50 greater than or equal to 5000 nM but less than 10000 nM; and “+” indicates an IC50 greater than or equal to 10000 nM.

[2] = test system: T47D (PIK3CA H1047R) cells, pSer473 AKT; experiment: pS473 AKT assay in T47D cells; type: cell-based; conditions: Homo sapiens, treated 2 h, read-out: T47D_IC50
Experimental: as §1, §2

Row | Compound | IC50 [1] [nM] | IC50 [2] [nM]
1 | Cn1nncc1-c1cc(NC(=O)c2cc(F)cc(C(F)(F)F)c2)c(Oc2cc(F)ccc2Cl)c2c(N)nn(C)c12 [Example 30, N-(3-Amino-4-(2-chloro-5-fluorophenoxy)-1-methyl-7-(1-methyl-1H-1,2,3-triazol-5-yl)-1H-indazol-5-yl)-3-fluoro-5-(trifluoromethyl)benzamide] | < 1000 | < 1000
2 | Nc1nn(CCO)c2c(C#Cc3ccccn3)cc(NC(=O)c3cc(F)cc(C(F)(F)F)c3)c(Oc3cc(F)ccc3Cl)c12 [Example 67, N-(3-Amino-4-(2-chloro-5-fluorophenoxy)-1-(2-hydroxyethyl)-7-(pyridin-2-ylethynyl)-1H-indazol-5-yl)-3-fluoro-5-(trifluoromethyl)benzamide] | 1000 to 5000 | < 1000
3 | Cn1nc(NC(=O)CN)c2c(Oc3cc(F)ccc3Cl)c(NC(=O)c3cc(F)cc(C(F)(F)F)c3)cc(Cl)c21 [Example 35, N-(3-(2-Aminoacetamido)-7-chloro-4-(2-chloro-5-fluorophenoxy)-1-methyl-1H-indazol-5-yl)-3-fluoro-5-(trifluoromethyl)benzamide] | 1000 to 5000 | < 1000
4 | Nc1nn(CC(=O)N2CCOCC2)c2ccc(NC(=O)c3cc(F)cc(C(F)(F)F)c3)c(Oc3cc(F)ccc3Cl)c12 [Example 10, N-(3-Amino-4-(2-chloro-5-fluorophenoxy)-1-(2-morpholino-2-oxoethyl)-1H-indazol-5-yl)-3-fluoro-5-(trifluoromethyl)benzamide] | 1000 to 5000 | < 1000
5 | Cn1nc(N)c2c(Oc3cc(F)ccc3Cl)c(NC(=O)c3cc(F)cc(C(F)(F)F)c3)cc(C#CC(C)(C)O)c21 [Example 39, N-(3-Amino-4-(2-chloro-5-fluorophenoxy)-7-(3-hydroxy-3-methylbut-1-yn-1-yl)-1-methyl-1H-indazol-5-yl)-3-fluoro-5-(trifluoromethyl)benzamide] | 1000 to 5000 | < 1000
6 | N#CCCn1nc(N)c2c(Oc3cc(F)ccc3Cl)c(NC(=O)c3cc(F)cc(C(F)(F)F)c3)cc(Cl)c21 [Example 34, N-(3-Amino-7-chloro-4-(2-chloro-5-fluorophenoxy)-1-(2-cyanoethyl)-1H-indazol-5-yl)-3-fluoro-5-(trifluoromethyl)benzamide] | 1000 to 5000 | < 1000
7 | CN(C)c1nn(C)c2c(Cl)cc(NC(=O)c3cc(F)cc(C(F)(F)F)c3)c(Oc3cc(F)ccc3Cl)c12 [Example 54, N-(7-chloro-4-(2-chloro-5-fluorophenoxy)-3-(dimethylamino)-1-methyl-1H-indazol-5-yl)-3-fluoro-5-(trifluoromethyl)benzamide] | ≥ 10000 | ≥ 10000
8 | Cn1nc(N)c2c(Oc3cc(F)ccc3Cl)c(NC(=O)c3cc(F)cc(C(F)(F)F)c3)cc(CCO)c21 [Example 66, N-(3-Amino-4-(2-chloro-5-fluorophenoxy)-7-(2-hydroxyethyl)-1-methyl-1H-indazol-5-yl)-3-fluoro-5-(trifluoromethyl)benzamide] | < 1000 | < 1000
9 | Nc1nn2c(=O)c3c(c4cc(NC(=O)c5cc(F)cc(C(F)(F)F)c5)c(Oc5cc(F)ccc5Cl)c1c42)CCCC3 [Example 75, N-(4-Amino-3-(2-chloro-5-fluorophenoxy)-7-oxo-8,9,10,11-tetrahydro-7H-pyrazolo[4,5,1-de]phenanthridin-2-yl)-3-fluoro-5-(trifluoromethyl)benzamide] | < 1000 | < 1000
10 | Nc1nnc2ccc(NC(=O)c3cc(F)cc(C(F)(F)F)c3)c(Oc3cc(F)ccc3Cl)n12 [Example 20, N-(3-Amino-5-(2-chloro-5-fluorophenoxy)-[1,2,4]triazolo[4,3-a]pyridin-6-yl)-3-fluoro-5-(trifluoromethyl)benzamide] | 1000 to 5000 | < 1000
11 | Nc1n[nH]c2c(CN3CCOCC3)cc(NC(=O)c3cc(F)cc(C(F)(F)F)c3)c(Oc3cc(F)ccc3Cl)c12 [Example 21, N-(3-Amino-4-(2-chloro-5-fluorophenoxy)-7-(morpholinomethyl)-1H-indazol-5-yl)-3-fluoro-5-(trifluoromethyl)benzamide] | < 1000 | < 1000
12 | Cn1nc(N)c2c(Oc3cc(F)ccc3Cl)c(NC(=O)c3cccc(C(F)(F)F)c3)cc(Cl)c21 [Example 61, N-(3-Amino-7-chloro-4-(2-chloro-5-fluorophenoxy)-1-methyl-1H-indazol-5-yl)-3-(trifluoromethyl)benzamide] | 5000 to 10000 | < 1000
13 | Cn1ccc(C#Cc2cc(NC(=O)c3cc(F)cc(C(F)(F)F)c3)c(Oc3cc(F)ccc3Cl)c3c(N)nn(C)c23)n1 [Example 48, N-(3-Amino-4-(2-chloro-5-fluorophenoxy)-1-methyl-7-((1-methyl-1H-pyrazol-3-yl)ethynyl)-1H-indazol-5-yl)-3-fluoro-5-(trifluoromethyl)benzamide] | 1000 to 5000 | < 1000
14 | CC(C)n1cc(-c2cc(NC(=O)c3cc(F)cc(C(F)(F)F)c3)c(Oc3cc(F)ccc3Cl)c3c(N)nn(C)c23)cn1 [Example 26, N-(3-Amino-4-(2-chloro-5-fluorophenoxy)-7-(1-isopropyl-1H-pyrazol-4-yl)-1-methyl-1H-indazol-5-yl)-3-fluoro-5-(trifluoromethyl)benzamide] | 1000 to 5000 | < 1000
15 | Cn1cc(-c2cc(NC(=O)c3cc(F)cc(C(F)(F)F)c3)c(Oc3cc(F)ccc3Cl)c3c(N)n[nH]c23)cn1 [Example 14, N-(3-Amino-4-(2-chloro-5-fluorophenoxy)-7-(1-methyl-1H-pyrazol-4-yl)-1H-indazol-5-yl)-3-fluoro-5-(trifluoromethyl)benzamide] | 1000 to 5000 | < 1000
16 | Cn1nc(N)c2c(Oc3cc(F)ccc3Cl)c(NC(=O)c3cc(F)cc(C(F)(F)F)c3)cc(-c3ccc(C(N)=O)cc3)c21 [Example 27, N-(3-Amino-7-(4-carbamoylphenyl)-4-(2-chloro-5-fluorophenoxy)-1-methyl-1H-indazol-5-yl)-3-fluoro-5-(trifluoromethyl)benzamide] | 1000 to 5000 | < 1000
17 | Nc1n[nH]c2c(-c3ccccc3)cc(NC(=O)c3cc(F)cc(C(F)(F)F)c3)c(Oc3cc(F)ccc3Cl)c12 [Example 17, N-(3-Amino-4-(2-chloro-5-fluorophenoxy)-7-phenyl-1H-indazol-5-yl)-3-fluoro-5-(trifluoromethyl)benzamide] | 1000 to 5000 | < 1000
18 | Cc1cc(NC(=O)c2cc(F)cc(C(F)(F)F)c2)c(Oc2cc(F)ccc2Cl)c2c(N)n[nH]c12 [Example 13, N-(3-Amino-4-(2-chloro-5-fluorophenoxy)-7-methyl-1H-indazol-5-yl)-3-fluoro-5-(trifluoromethyl)benzamide] | < 1000 | < 1000
19 | Cn1nc(N)c2c(Oc3cc(F)ccc3Cl)c(NC(=O)c3cc(F)cc(C(F)(F)F)c3)cc(C#CC3CCOC3)c21 (stereo not drawn) [Example 41, N-(3-Amino-4-(2-chloro-5-fluorophenoxy)-1-methyl-7-((tetrahydrofuran-3-yl)ethynyl)-1H-indazol-5-yl)-3-fluoro-5-(trifluoromethyl)benzamide] | 1000 to 5000 | < 1000
20 | CC(=O)N1CCC(C#Cc2cc(NC(=O)c3cc(F)cc(C(F)(F)F)c3)c(Oc3cc(F)ccc3Cl)c3c(N)nn(C)c23)CC1 [Example 52, N-(7-((1-Acetylpiperidin-4-yl)ethynyl)-3-amino-4-(2-chloro-5-fluorophenoxy)-1-methyl-1H-indazol-5-yl)-3-fluoro-5-(trifluoromethyl)benzamide] | 1000 to 5000 | < 1000
21 | Cn1nc(N)c2c(Oc3cc(F)ccc3Cl)c(NC(=O)c3cc(F)cc(C(F)(F)F)c3)cc(/C=C/C#N)c21 [Example 57, (E)-N-(3-amino-4-(2-chloro-5-fluorophenoxy)-7-(2-cyanovinyl)-1-methyl-1H-indazol-5-yl)-3-fluoro-5-(trifluoromethyl)benzamide] | < 1000 | < 1000
22 | Cn1nc(N)c2c(Oc3cc(F)ccc3Cl)c(NC(=O)c3cncc(C(F)(F)F)c3)cc(Cl)c21 [Example 62, N-(3-Amino-7-chloro-4-(2-chloro-5-fluorophenoxy)-1-methyl-1H-indazol-5-yl)-5-(trifluoromethyl)nicotinamide] | 1000 to 5000 | < 1000
23 | CNc1nn(C)c2c(Cl)cc(NC(=O)c3cc(F)cc(C(F)(F)F)c3)c(Oc3cc(F)ccc3Cl)c12 [Example 53, N-(7-chloro-4-(2-chloro-5-fluorophenoxy)-1-methyl-3-(methylamino)-1H-indazol-5-yl)-3-fluoro-5-(trifluoromethyl)benzamide] | ≥ 10000 | < 1000
24 | CNC(=O)N1CCCCC1C#Cc1cc(NC(=O)c2cc(F)cc(C(F)(F)F)c2)c(Oc2cc(F)ccc2Cl)c2c(N)nn(C)c12 (stereo not drawn) [Example 80, 2-((3-Amino-4-(2-chloro-5-fluorophenoxy)-5-(3-fluoro-5-(trifluoromethyl)benzamido)-1-methyl-1H-indazol-7-yl)ethynyl)-N-methylpiperidine-1-carboxamide] | 1000 to 5000 | < 1000
